Data: ChEMBL document CHEMBL4177563, “The medicinal chemistry of Chikungunya virus” (Bioorg Med Chem, 2017)

Experiments:
Chikungunya virus [1] = test: Antiviral activity against Chikungunya virus LR2006-OPY1 infected in human Huh7.5 cells after 48 hrs by luciferase reporter gene assay; type: functional, organism-based; settings: LR2006-OPY1, Huh7.5, 48 h
[2] = Cytotoxicity against human Huh7.5 cells in presence of ATP by Celltiter-Glo assay; type: cell-based
[3] = Selectivity index, ratio of CC50 for human Huh7.5 cells to EC50 for Chikungunya virus; type: toxicity; settings: read-out: Ratio CC50/EC50
Chikungunya virus [4] = test: Antiviral activity against Chikungunya virus at 0.006 to 300 uM by cell based luciferase reporter gene assay relative to control; type: functional
Chikungunya virus [5] = test: Antiviral activity against Chikungunya virus LR2006-OPY1 infected in BHK21 cells after 48 hrs by luciferase reporter gene assay; type: functional, organism-based; settings: LR2006-OPY1, BHK-21, 48 h
[6] = Cytotoxicity against BHK21 cells in presence of ATP by Celltiter-Glo assay; type: cell-based, Mesocricetus auratus; settings: hamster, BHK-21 cells
[7] = Selectivity index, ratio of CC50 for BHK21 cells to EC50 for Chikungunya virus; type: toxicity; settings: hamster, BHK-21 cells; read-out: Ratio CC50/EC50
Chikungunya virus [8] = test: Antiviral activity against Chikungunya virus KC969208 infected in African green monkey Vero cells after 48 hrs by MTT dye-based assay; type: functional, organism-based
[9] = Selectivity index, ratio of CC50 for African green monkey Vero cells to IC50 for Chikungunya virus KC969208; type: toxicity; settings: read-out: Ratio CC50/IC50
Chikungunya virus [10] = test: Antiviral activity against Chikungunya virus KC969207 infected in African green monkey Vero cells after 48 hrs by MTT dye-based assay; type: functional, organism-based
[11] = Selectivity index, ratio of CC50 for African green monkey Vero cells to IC50 for Chikungunya virus KC969207; type: toxicity; settings: read-out: Ratio CC50/IC50
[12] = Cytotoxicity against African green monkey Vero cells assessed as reduction in cell viability after 4 days by MTT assay; type: cell-based; settings: chlorocebus sabaeus
Dengue virus [13] = test: Antiviral activity against Dengue virus infected in human K562 cells assessed as reduction in viral load at 1 uM; type: functional
Dengue virus [14] = test: Antiviral activity against Dengue virus infected in human Huh-7 cells assessed as reduction in viral load at 1 uM; type: functional
Chikungunya virus [15] = test: Antiviral activity against Chikungunya virus infected in human Huh-7 cells assessed as reduction in viral load at 10 uM; type: functional
Chikungunya virus [16] = test: Antiviral activity against Chikungunya virus 899 infected in African green monkey Vero cells assessed as inhibition of virus-induced cytopathogenic effect measured on day 5 post infection by MTS/PMS based microscopic analysis; type: functional, organism-based; settings: Chikungunya virus, 899, Vero, 120 h
Vero = test: Cytotoxicity against African green monkey Vero cells assessed as reduction in cell viability measured on day 5 post dose by MTS/PMS based microscopic analysis; settings: chlorocebus sabaeus
Chikungunya virus [17] = test: Antiviral activity against Chikungunya virus venturini isolate (Italy 2008) infected in African green monkey Vero-A cells assessed as inhibition of viral-induced cytopathic effect measured on day 7 post infection by MTS/PMS assay; type: functional, organism-based; settings: 168 h
Chikungunya virus [18] = test: Antiviral activity against Chikungunya virus LR2006-OPY1 infected in African green monkey Vero-A cells assessed as inhibition of viral-induced cytopathic effect measured on day 7 post infection by MTS/PMS assay; type: functional, organism-based; settings: LR2006-OPY1, 168 h
Chikungunya virus [19] = test: Antiviral activity against Chikungunya virus 899 infected in African green monkey Vero-A cells assessed as inhibition of viral-induced cytopathic effect measured on day 7 post infection by MTS/PMS assay; type: functional, organism-based; settings: Chikungunya virus, 899, 168 h
Chikungunya virus [20] = test: Antiviral activity against Chikungunya virus isolate DRDE-06 infected in African green monkey Vero cells by neutral red dye uptake assay; type: functional, organism-based; settings: isolate DRDE-06, Vero
[21] = Selectivity index, ratio of CC50 for African green monkey Vero cells to IC50 for Chikungunya virus DRDE-06; type: toxicity; settings: read-out: Ratio CC50/IC50
[22] = Cytotoxicity against African green monkey Vero cells by neutral red dye uptake assay; type: cell-based; settings: chlorocebus sabaeus
Chikungunya virus [23] = test: Antiviral activity against Chikungunya virus 899 infected in African green monkey Vero A cells assessed as reduction in viral infectious progeny by end-point titration assay; type: functional, organism-based; settings: Chikungunya virus, 899, Vero
Chikungunya virus [24] = test: Antiviral activity against Chikungunya virus 899 infected in African green monkey Vero A cells by real-time qRT-PCR analysis; type: functional, organism-based; settings: Chikungunya virus, 899, Vero
[25] = Cytotoxicity against African green monkey Vero A cells assessed as reduction in cell viability measured on day 5 post infection by MTS/PMS based microscopic analysis; settings: chlorocebus sabaeus
Chikungunya virus [26] = test: Antiviral activity against Chikungunya virus 899 infected in African green monkey Vero A cells assessed as inhibition of virus-induced cytopathogenic effect measured on day 5 post infection by MTS/PMS based microscopic analysis; type: functional, organism-based; settings: Chikungunya virus, 899, Vero, 120 h
Chikungunya virus [27] = test: Antiviral activity against Chikungunya virus LR2006 OPY1 infected in human MRC5 cells after 48 hrs by indirect immunofluorescence analysis; type: functional, organism-based; settings: LR2006 OPY1, MRC5, 48 h
[28] = Selectivity index, ratio of CC50 for African green monkey Vero cells to IC50 for Chikungunya virus nsP2 protease; type: toxicity; settings: read-out: Ratio CC50/IC50
Chikungunya virus [29] = test: Antiviral activity against Chikungunya virus C347 infected in African green monkey Vero cells assessed as inhibition of viral-induced cytopathic effect after 2 days by microscopic analysis; type: functional, organism-based; settings: 48 h

CC1=C(/C=C/C(C)=C/C=C/C(C)=C/C(=O)Nc2ccc(O)cc2)C(C)(C)CCC1 [FENRETINIDE]
EC50 (Chikungunya virus [1]): 0.5 µM | CC50 [2]: 15.6 µM | selectivity ratio [3]: 29.9 | Activity (Chikungunya virus [4]): 65% | EC50 (Chikungunya virus [5]): 3.1 µM | CC50 [6]: 31.5 µM | selectivity ratio [7]: 10.3

CCCCOC(=O)c1ccccc1C(=O)O
IC50 (Chikungunya virus [8]): 28.6 µM | selectivity ratio [9]: 11.9 | IC50 (Chikungunya virus [10]): 2.49 µM | selectivity ratio [11]: 136 | CC50 at 96 h [12]: 340 µM

O=C1c2c(O)ccc([N+](=O)[O-])c2C(=O)c2c([N+](=O)[O-])ccc(O)c21
Activity (Dengue virus [13]): >1 log10PFU/ml | Activity (Dengue virus [14]): >1 log10PFU/ml | Activity (Chikungunya virus [15]): 1 log10PFU/ml

Cn1c2ccccc2c2c3c(c4c5ccccc5n(CCC#N)c4c21)CNC3=O [GO-6976]
EC50 (Chikungunya virus [16]): > 6 µM | CC50 (Vero): 6 µM

CN(C)CC1CCn2c(cc3ccc(C4=C(c5cn(C)c6ccccc56)C(=O)NC4=O)cc32)C1 (centres undefined)
EC50 (Chikungunya virus [16]): > 6 µM | CC50 (Vero): 35 µM

NC(=O)c1nc(F)cnc1O [FAVIPIRAVIR]
EC50 (Chikungunya virus [17]): 16 µM | EC50 (Chikungunya virus [18]): 25 µM | EC50 (Chikungunya virus [19]): 25 µM

CC(C)CCCC(C)CCCC(C)CCCC(C)CCO (centres undefined)
IC50 (Chikungunya virus [8]): 112 µM | selectivity ratio [9]: 2.11 | IC50 (Chikungunya virus [10]): 1.66 µM | selectivity ratio [11]: 156 | CC50 at 96 h [12]: 259 µM

COc1c(C)c2c(c(O)c1C/C=C(\C)CCC(=O)O)C(=O)OC2 [MYCOPHENOLIC ACID]
IC50 (Chikungunya virus [20]): 0.1 µM | selectivity ratio [21]: 300 | CC50 [22]: 30 µM

CCCCCCCC(=O)O[C@H]1/C(=C/C(=O)OC)C[C@H]2C[C@H](CC(=O)OC)OC(=O)CCOc3ccc(-c4c(OC)cccc4OC)cc3C(=O)OCC(C)(C)[C@]1(O)O2
EC50 (Chikungunya virus [23]): 2 µM | EC50 (Chikungunya virus [24]): 2.1 µM | CC50 at 5 days [25]: > 50 µM | EC50 (Chikungunya virus [26]): 4 µM

CCCCCCCC(=O)O[C@H]1/C(=C/C(=O)OC)C[C@H]2C[C@H](CC(=O)OC)OC(=O)CCOc3ccccc3C(=O)OCC(C)(C)[C@]1(O)O2
EC50 (Chikungunya virus [23]): 4.5 µM | EC50 (Chikungunya virus [24]): 4.6 µM | CC50 at 5 days [25]: > 50 µM | EC50 (Chikungunya virus [26]): 8 µM

CCOC(=O)c1c(CS(=O)(=O)c2ccccc2)n(C)c2cc(Br)c(O)c(CN(C)C)c12
IC50 (Chikungunya virus [27]): > 56.4 µM

CCOc1ccc(/C=N/NC(=O)C2CC2c2ccc(C(C)(C)C)cc2)cc1OCC (centres undefined)
selectivity ratio [28]: 14

NC(=O)c1ncn([C@@H]2O[C@H](CO)[C@@H](O)[C@H]2O)n1 [RIBAVIRIN]
EC50 (Chikungunya virus [29]): 341 µM | IC50 (Chikungunya virus [10]): 3.06 µM | selectivity ratio [11]: 529 | CC50 at 96 h [12]: 1620 µM
